In PubChem BioAssay AID1850 (Southern Research Specialized Biocontainment Screening …, 2009):
“And” between values parts separate entries of the source, which are not always exact repeats. Identical values can stand only once.

System: Salmonella Typhi PhoP-promoter GFP reporter, fluorescence, 4 h
Assay: Inhibition of PhoP regulon, Salmonella typhi GFP reporter cells, confirmation, 4 h (AID 1850)

Structure (SMILES) | IC50
COc1cc([N+](=O)[O-])cc(/C=N/NC(=O)c2cccnc2)c1O | 82.4 µM
CN1CCCN(C(c2ccccc2)c2ccc(Cl)cc2)CC1 (stereo unspecified) | 86.8 µM
C[C@H]1c2cccc(O)c2C(O)=C2C(=O)C3(O)C(O)=C(C(N)=O)C(=O)[C@@H](N(C)C)[C@@H]3[C@@H](O)[C@@H]21 (stereo partly specified) | 2.01 µM
CCCCCOc1ccc(CSC(=N)N)cc1[N+](=O)[O-] | 57.7 µM
COc1ccc(C2NCCc3c2[nH]c2ccccc32)cc1COc1ccc(F)cc1 (stereo unspecified) | 39.1 µM
CC1CCC(C(C)C)C(OC(=O)Cn2c(COc3ccccc3)[n+](C)c3ccccc32)C1 (stereo unspecified) | 35.1 µM
Oc1ccccc1-c1cc(C(F)(F)C(F)F)[nH]n1 | 80.3 µM
CN(C)CCN(C(=O)C1=COCCO1)c1nc2ccc(Cl)cc2s1 | 135 µM
CCOC(=O)C1=C(O)c2ccccc2C(=O)/C1=C\c1ccc(C)cc1 | 142 µM
CCCCCCCCNc1ncnc2ccccc12 | 18.7 µM
NC1=NC2(CCCCC2)N=C(Nc2ccc(Br)cc2)N1 | 12.7 µM
CCCCCCCSc1cc(OC)c(CCN(C)C)cc1OC | 35.7 µM
CC(C)[C@@H]1CC[C@@H](C)C[C@H]1OC(=O)C[n+]1cc(-c2ccc(Cl)cc2)n2c1CCCCC2 | 67.2 µM
O=C(Nc1c(Cl)ccc2nsnc12)c1ccc([N+](=O)[O-])o1 | 91.4 µM
O=C(C[n+]1cccc(CNC(=O)c2ccc(OC(F)F)cc2)c1)Nc1ccc(SC(F)F)cc1 | 83.2 µM
CCCCCCCCCCOC(=O)C[N+](C)(C)CC1CCCCC1O (stereo unspecified) | 34.9 µM
C#CCOCCOCCOCCNc1nc(N2CCN(C(=O)CCCCCCCCCCNC(=O)[C@@H](CCSC)n3cc(CCO)nn3)CC2)nc(N2CCN(C(=O)CCCCCCCCCCNC(=O)[C@H]([C@@H](C)CC)n3cc(CCCCN=C(N)N)nn3)CC2)n1 | 82.7 µM
CNC[C@@H](Cc1ccccc1)NC[C@@H](CC1CCCCC1)NCCCc1ccccc1 | 38.2 µM
CNC[C@@H](CC1CCCCC1)NC[C@H](CC(C)C)NCCc1cccc(C(F)(F)F)c1 | 19.8 µM
COCCCNC(=S)NNC(=O)c1ccccn1 | 37.4 µM
OCCN1CCN(C2CCC(c3ccc(F)cc3)c3ccc(F)cc32)CC1 (stereo unspecified) | 36.6 µM
NC(N)=N/N=C/c1ccc(OCc2ccccc2Cl)cc1 | 31.2 µM
CN(C)CCCN1c2ccccc2Sc2ccc(Cl)cc21 | 68.6 µM and 39 µM
Cc1cc(N2CCC(C)CC2)nc2cccc(O)c12 | 77.1 µM
O=C(Cc1ccc(Br)cc1)c1ccc(O)cc1O | 119 µM
COc1ccc(/C=N/Nc2cc(C)nc3c(C)cccc23)cc1 | 19.3 µM

Structure (SMILES) | IC50
Oc1c(Br)cc(Br)cc1C=NCc1ccc(F)cc1 | 57.4 µM
O=C(/C=C/c1ccccc1)NC(=S)NNC(=O)c1cnccn1 | 29.7 µM
CCOC(=O)N1CCN(C(=O)c2cn(CC)c3cc(N4CCN(C)CC4)c(F)cc3c2=O)CC1 | 3.42 µM
O=C(CCc1ccccc1)NNC(=O)c1ccccn1 | 74 µM
O=C(N/N=C/c1cc(Br)ccc1O)c1ccncc1 | 34.9 µM
Cc1cc(/C=C\c2ccc3cc(N(C)C)ccc3[n+]2C)c(C)n1-c1ccccc1 | 27.8 µM
Clc1ccc(OCCCNCc2ccccc2)c(Br)c1 | 37.6 µM
CO[C@H]1C=CO[C@@]2(C)Oc3c(C)c(O)c4c(O)c(c5c(c4c3C2=O)NC2(CCN(CC(C)C)CC2)N=5)=NC(=O)C(C)=CC=C[C@H](C)[C@H](O)[C@@H](C)[C@@H](O)[C@@H](C)[C@H](OC(C)=O)[C@@H]1C | 1.53 µM
Cc1ccc2nc(/C(C#N)=C\c3ccc([N+](=O)[O-])o3)[nH]c2c1 | 99.1 µM
COC(=O)C1=C(C)N(Cc2ccccc2)C(=NCc2cccc(C(F)(F)F)c2)N[C@H]1c1cccc(F)c1 | 33.3 µM
O=C(/C=C/c1ccc(F)cc1)NC(=S)NNC(=O)c1cnccn1 | 28.6 µM
O=c1c2ccccc2nc(N/N=C/c2c(O)ccc3ccccc23)n1O | 24.9 µM
CCOC(=O)N/N=C\c1ccc([N+](=O)[O-])o1 | 33.1 µM
CCCCCCCCCC[N+](C)(C)CC/C=C1/c2ccccc2Sc2ccc(Cl)cc21 | 13.2 µM
O=C(N/N=C/c1ccccc1O)C1SCCCS1 | 87.9 µM
Nc1nc(Nc2ccccc2)nc2ccccc12 | 34.4 µM
CCn1cc(C(=O)NCCO)c(=O)c2cc(F)c(N3CCN(C)CC3)cc21 | 9.31 µM
CCCCC(=O)NNC(=S)NC(=O)CCC | 97.4 µM
CCN1CCN(C(=O)c2cc3cc(F)ccc3[nH]2)CC1 | 102 µM
Clc1cc(Br)ccc1OCCCNCc1ccccc1 | 36.5 µM
CN(Cc1ccccc1)CC(O)COc1ccc(CNCc2ccc(Cl)s2)cc1 (stereo unspecified) | 124 µM
O=C(c1cccs1)c1no[n+]([O-])c1C(=O)c1cccs1 | 28.4 µM
C#CCOCCOCCOCCNc1nc(N2CCN(C(=O)CCCCCCCCCCNC(=O)Cn3cc(CCCCCN)nn3)CC2)nc(N2CCN(C(=O)CCCCCCCCCCNC(=O)[C@H]([C@@H](C)CC)n3cc(CCCCCN)nn3)CC2)n1 | 38.9 µM
O=C(N/N=C/c1cc([N+](=O)[O-])ccc1O)C(O)(c1ccccc1)c1ccccc1 | 73.4 µM
OCCCNc1c2ccccc2nc2ccccc12 | 105 µM
COc1ccccc1CNCCc1ccc(F)cc1 | 24.8 µM

Structure (SMILES) | IC50
CCCOc1ccc(C(=O)NNC(=S)NC(=O)CC)cc1 | 47.7 µM
O=C(CNC(=O)c1cccc(F)c1)N/N=C/c1ccc([N+](=O)[O-])s1 | 20 µM
CN1CCN(C2=Cc3cc(Cl)ccc3Sc3cc(F)ccc32)CC1 | 45 µM
CCCCCCCSc1cc(OC)c(CCNC)cc1OC | 35.9 µM
COc1ccc(CNc2ncnc3c2[nH]c2ccccc23)cc1 | 84.5 µM
CO[C@H]1/C=C/O[C@@]2(C)Oc3c(C)c(O)c4c(O)c(c(C=NN5CCN(C)CC5)c(O)c4c3C2=O)NC(=O)/C(C)=C\C=C\[C@H](C)[C@H](O)[C@@H](C)[C@@H](O)[C@@H](C)[C@H](OC(C)=O)[C@@H]1C | 9.7 µM
c1ccc(CN2CCN(c3nc(NCc4ccco4)c4ccccc4n3)CC2)cc1 | 38 µM
Cc1ccc(C)c(NC(=O)CCC(=O)N/N=C/c2cc([N+](=O)[O-])ccc2O)c1 | 60.6 µM
CCCCCC(CC(=O)NO)C(=O)NC(C(=O)N1CCCC1CO)C(C)C (stereo unspecified) | 15.5 µM
O=C(Nc1cccc(N=Cc2cc(Cl)cc(Br)c2O)c1)c1ccco1 | 96.9 µM
Cc1ccc(Nc2nc(N)c3ccccc3n2)cc1Cl | 21 µM
O=[N+]([O-])c1cc(CN2CCN(c3cccc(C(F)(F)F)c3)CC2)c2cccnc2c1O | 20.8 µM
CCCOc1ccc(C(=O)NNC(=S)NC(=O)c2ccco2)cc1 | 74.7 µM
COc1ccc(Nc2c3c(nc4ccccc24)CCC3)cc1 | 74.6 µM
OC(CNCCc1ccc(Cl)cc1)COc1cc(Cl)ccc1Cl (stereo unspecified) | 67.9 µM
CC(C)(C)/C(O)=C/c1nc2cc(Cl)ccc2oc1=O | 18.2 µM
C#CCOCCOCCOCCNc1nc(N2CCN(C(=O)CCCCCCCCCCNC(=O)[C@H](CCCCN)n3cc(C)nn3)CC2)nc(N2CCN(C(=O)CCCCCCCCCCNC(=O)[C@H](CO)n3cc(CCCSC)nn3)CC2)n1 | 113 µM
CC1COc2c(N3CCN(C)CC3)c(F)cc3c(=O)c(C(=O)O)cn1c23 (stereo unspecified) | 0.31 µM
OCCN1CCN(Cc2cc(Cl)c3cccnc3c2O)CC1 | 75.7 µM
O=C(O)/C(=C\C(=O)c1ccccc1)Nc1ccccc1 | 39.4 µM
Cc1ccccc1S(=O)(=O)NNC(=O)C(=O)NNc1ccccn1 | 74.3 µM
O=C(CNC(=O)c1ccccc1)N/N=C/c1ccc([N+](=O)[O-])s1 | 19.7 µM
O=C(CCN1CCOCC1)N/N=C/c1cc(Br)cc(Br)c1O | 31.1 µM
CC1CC(=O)c2c(cc3c(-c4c(O)cc(O)c5c(O)c6c(cc45)OC(C)CC6=O)c(O)cc(O)c3c2O)O1 (stereo unspecified) | 27.3 µM
